The target in series [1] is T1, ETA receptor (Homo sapiens, UniProt P25101). The experiment in a line: cell-based.
Series [2] has as its target T2, ETA receptor variant L322A (Homo sapiens, UniProt P25101, L322A).
Series [3] addresses T3, ETA receptor variant I355A (Homo sapiens, UniProt P25101, I355A). The experiment in a line: cell-based.
The conditions of series [4]: cited from earlier work.
Series [5] deals with T1, ETA receptor. As to conditions: cited from earlier work; for ETA receptor occupancy half-life (t1/2): PASMC.
Series [6] addresses T4, wildtype ETA receptor (Homo sapiens, UniProt P25101).
For series [7], the target named is T4, wildtype ETA receptor. In words: cell-based.
The target of series [8] is T5, ETA receptor variant Q165A (Homo sapiens, UniProt P25101, Q165A).
T5 sequence (P25101 21-427 Q165A): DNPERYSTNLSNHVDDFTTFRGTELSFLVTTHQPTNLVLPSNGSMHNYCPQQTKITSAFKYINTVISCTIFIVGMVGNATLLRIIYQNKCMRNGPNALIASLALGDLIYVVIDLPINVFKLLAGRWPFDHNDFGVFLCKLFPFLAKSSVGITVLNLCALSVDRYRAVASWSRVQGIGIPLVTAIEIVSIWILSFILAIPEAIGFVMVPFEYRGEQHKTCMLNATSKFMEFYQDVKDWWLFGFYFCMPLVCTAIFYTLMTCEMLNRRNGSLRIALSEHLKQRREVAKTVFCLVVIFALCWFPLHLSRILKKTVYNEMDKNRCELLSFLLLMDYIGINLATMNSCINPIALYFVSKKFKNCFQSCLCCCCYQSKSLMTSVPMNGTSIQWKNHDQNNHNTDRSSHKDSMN
For series [9], the target named is T6, ETA receptor variant D351N (Homo sapiens, UniProt P25101, D351N). The experiment in a line: cell-based.
T6 sequence (P25101 21-427 D351N): as the sequence (P25101 21-427 Q165A) above, with A145Q, D331N counted along it
For series [10] the following is noted: cited from earlier work. The source holds these as a separate data set.
The target in series [11] is T2, ETA receptor variant L322A. In words: cell-based.
The target of series [12] is T7, ETA receptor variant K329M (Homo sapiens, UniProt P25101, K329M).
T7 sequence (P25101 21-427 K329M): as the sequence (P25101 21-427 Q165A) above, with A145Q, K309M counted along it
Series [13] addresses T7, ETA receptor variant K329M. In words: cell-based.
In series [14] the target is T8, ETA receptor variant R326Q (Homo sapiens, UniProt P25101, R326Q).
T8 sequence (P25101 21-427 R326Q): as the sequence (P25101 21-427 Q165A) above, with A145Q, R306Q counted along it
Series [15] addresses T5, ETA receptor variant Q165A. In words: cell-based.
Series [16] has as its target T3, ETA receptor variant I355A.
The target of series [17] is T8, ETA receptor variant R326Q. In words: cell-based.
Series [18] has as its target T6, ETA receptor variant D351N.
Series [19] deals with T1, ETA receptor. Conditions: PASMC, 5 µM ET-1, 20 min stimulation, maximal ERA concentration 1 µM, arithmetic means, normalized to macitentan analogs 1 or 8 (100%).
The mark [20] stands for this setting: pKa1, no method or reference printed.
The mark [21] stands for this setting: pKa2, no method or reference printed.

Read-outs that look alike come from different tables or passages of the source. Square brackets hold non-standard residues; d marks the D form. Peptide text beside a SMILES is read from it.

T3 sequence (P25101 21-427 I355A): as the sequence (P25101 21-427 Q165A) above, with A145Q, I335A counted along it
T2 sequence (P25101 21-427 L322A): as the sequence (P25101 21-427 Q165A) above, with A145Q, L302A counted along it
T4 sequence (P25101 21-427): as the sequence (P25101 21-427 Q165A) above, with A145Q counted along it
T1 sequence (P25101 21-427): as the sequence (P25101 21-427 Q165A) above, with A145Q counted along it

For `CC(C)C[C@@H]1NC(=O)[C@@H](C(C)C)NC(=O)[C@@H]2CCCN2C(=O)[C@@H](CC(=O)O)NC(=O)[C@@H](Cc2c[nH]c3ccccc23)NC1=O` [BQ123] (cyclo(L[dW][dD]P[dV])), the IC50 on ETA receptor [1] (log IC50 (M), calcium flux, PASMC, 4 nM–[…] nM ET-1 (EC80)) is 1.26e-09 M.
Regarding `COC(c1ccccc1)(c1ccccc1)[C@H](Oc1nc(C)cc(C)n1)C(=O)O` [ambrisentan], the “IC50 shift versus wildtype (fold)” value in series [2] came to 15 fold; at wildtype ETA receptor [6] it was 1.0 fold; in [8] it was 1129 fold; in [12] it was 0.2 fold; in [14], 317 fold; in series [16], 2.9 fold. The “IC50 shift versus wildtype (fold)” value in series [18] turned out to be 1.6 fold. Moreover, the IC50 against ETA receptor [1] turned out to be 4.4e-10 M; in [3] it was 8.1 nM; at wildtype ETA receptor [7], 2.8 nM; in [9] it was 4.5 nM; in series [11], 41 nM; in series [13], 0.58 nM. Besides, the IC50 in series [15] turned out to be 3160 nM; in series [17] it was 887 nM. The logD in series [4] was −0.4. Also, the “ETA receptor occupancy half-life (t1/2)” value at ETA receptor [5] is given as 1 min. Besides, the pKa in series [10] was 3.5.
As for `COc1ccccc1Oc1c(NS(=O)(=O)c2ccc(C(C)(C)C)cc2)nc(-c2ncccn2)nc1OCCO` [bosentan], in [4], the logD is reported as 1.3. Also, the pKa in series [10] is 5.1. The “Insurmountability (%)” value at ETA receptor [19] stood at 0%.
For `COc1ccccc1Oc1c(NS(=O)(=O)c2ccc(C)cn2)nc(-c2ccnc(-c3nnn[nH]3)c2)nc1OCCO` [clazosentan], the “IC50 shift versus wildtype (fold)” value stood at 1.2 fold in series [2], 1 fold at wildtype ETA receptor [6], 26 fold in series [14] and 32 fold in [16]. Moreover, the IC50 against ETA receptor [1] is 3.3e-11 M; in series [3], 2.7 nM; on wildtype ETA receptor [7] it was 0.085 nM; in series [11], 0.1 nM; in [17] it was 2.2 nM. For the same compound, the pKa is 4.5 in the series “physchem” (setting [20]) and 3.3 in “physchem” (setting [21]).
Turning to `CCCCNS(=O)(=O)Nc1ncnc(OCCOc2ncc(Br)cn2)c1-c1ccc(Br)cc1` [macitentan analog 1], the “IC50 shift versus wildtype (fold)” value in series [2] is on record as 188 fold; at wildtype ETA receptor [6], 1 fold; in series [14], 7.1 fold; in series [16], 0.3 fold. In addition, the IC50 at ETA receptor [1] came out at 9.3e-11 M; in series [3], 0.047 nM; at wildtype ETA receptor [7], 0.17 nM; in series [11], 32 nM; in series [17], 1.2 nM.
`CCNS(=O)(=O)Nc1ncnc(OCCOc2ncc(Br)cn2)c1-c1ccc(Br)cc1` [macitentan analog 2]: the “IC50 shift versus wildtype (fold)” value amounted to 228 fold in [2], 1 fold on wildtype ETA receptor [6], 7.1 fold in series [14] and 0.8 fold in series [16]. In addition, the IC50 on ETA receptor [1] was determined as 5.1e-10 M; in [3] it was 3.9 nM; at wildtype ETA receptor [7] it was 4.8 nM; in series [11], 1090 nM; in [17] it was 34 nM.
In the case of `O=S(=O)(NCc1ccccc1)Nc1ncnc(OCCOc2ncc(Br)cn2)c1-c1ccc(Br)cc1` [macitentan analog 3], the IC50 at ETA receptor [1] came to 8.5e-11 M.
Still for that read-out and setting: then `CCS(=O)(=O)Nc1ncnc(OCCOc2ncc(Br)cn2)c1-c1ccc(Br)cc1` [macitentan analog 4], with 1.2e-09 M.
In turn, `CCCS(=O)(=O)Nc1ncnc(OCCOc2ncc(Br)cn2)c1-c1ccc(Br)cc1` [macitentan analog 5] came in with an IC50 against ETA receptor [1] of 3.8e-10 M.
The same measure, in the same setting: to `CCCCS(=O)(=O)Nc1ncnc(OCCOc2ncc(Br)cn2)c1-c1ccc(Br)cc1` [macitentan analog 6] belongs 6.2e-10 M.
`CCCNS(=O)(=O)Nc1ncnc(OCCOc2ncc(OC)cn2)c1-c1ccc(Br)cc1` [macitentan analog 7]: the “IC50 shift versus wildtype (fold)” value in [2] amounted to 66 fold; at wildtype ETA receptor [6], 1 fold; in [14], 6.5 fold; in series [16] it was 1.1 fold. The IC50 against ETA receptor [1] was determined as 3.9e-09 M; in series [3], 45 nM; on wildtype ETA receptor [7] it was 41 nM; in series [11] it was 2690 nM; in series [17], 268 nM.
In turn, `CCCNS(=O)(=O)Nc1ncnc(OCCOc2ncc(I)cn2)c1-c1ccc(Br)cc1` [macitentan analog 8] gave a half-maximal inhibitory concentration (IC50) against ETA receptor [1] of 6.5e-11 M.
With `CCCNS(=O)(=O)Nc1ncnc(OCCOc2ncc(Br)cn2)c1-c1ccc(Cl)cc1` [macitentan analog 9], the “IC50 shift versus wildtype (fold)” value is listed as 136 fold in series [2], 1 fold at wildtype ETA receptor [6], 3.3 fold in series [14] and 0.6 fold in [16]. The IC50 is 4.7e-10 M against ETA receptor [1]; 8.6 nM in [3]; 14 nM on wildtype ETA receptor [7]; 1900 nM in series [11]; 46 nM in series [17].
`CCCNS(=O)(=O)Nc1ncnc(OCCOc2ccc(Br)cc2)c1-c1ccc(Br)cc1` [macitentan analog 10] gave an IC50 against ETA receptor [1] of 4.31e-07 M.
On the same count and under the same terms, then `CCCNS(=O)(=O)Nc1ncnc(OCCCOc2ncc(Br)cn2)c1-c1ccc(Br)cc1` [macitentan analog 11], with 3.5e-08 M.
On the same count and under the same terms, then `CCCNS(=O)(=O)Nc1ncnc(OCCCCOc2ncc(Br)cn2)c1-c1ccc(Br)cc1` [macitentan analog 12], with 2.55e-07 M.
`CCCNS(=O)(=O)Nc1ncnc(OCCOc2ncc(Br)cn2)c1-c1ccc(Br)cc1` [macitentan, N-[5-(4-bromophenyl)-6-[2-[(5-bromo-2-pyrimidinyl)oxy]ethoxy]-4-pyrimidinyl]-N′-propylsulfamide]: the “IC50 shift versus wildtype (fold)” value worked out at 148 fold in [2]; 1.0 fold at wildtype ETA receptor [6]; 174 fold in series [8]; 0.5 fold in series [12]; 6.3 fold in series [14]; 0.9 fold in series [16]. In addition, in [18], the “IC50 shift versus wildtype (fold)” value came to 1.2 fold. Further, the IC50 came out at 1.7e-10 M against ETA receptor [1]; 1.1 nM in series [3]; 1.2 nM against wildtype ETA receptor [7]; 1.5 nM in [9]; 178 nM in [11]; 0.58 nM in series [13]. Moreover, the IC50 was found to be 209 nM in series [15] and 7.6 nM in series [17]. In addition, in series [4], the logD is given as 2.9. Further, the “ETA receptor occupancy half-life (t1/2)” value at ETA receptor [5] was around 17 min. For the same compound, the “increase of receptor occupancy half-life compared to ambrisentan and bosentan” value at ETA receptor [5] (human primary PASMC) was around 20 fold. Further, the “Insurmountability (%)” value on ETA receptor [19] amounted to 64%.
As to `COc1ccccc1Oc1c(NS(=O)(=O)c2ccc(C(C)C)cn2)nc(-c2ccnc(-c3nnn[nH]3)c2)nc1OCCO` [tezosentan], the “IC50 shift versus wildtype (fold)” value in [2] is on record as 2.0 fold; on wildtype ETA receptor [6], 1 fold; in series [14] it was 50 fold; in series [16], 54 fold. In addition, the IC50 against ETA receptor [1] was 5.2e-11 M; in series [3], 14 nM; at wildtype ETA receptor [7], 0.26 nM; in [11] it was 0.53 nM; in series [17], 13 nM. Moreover, the pKa in “physchem” (setting [20]) came to 4.4; in the series “physchem” (setting [21]), 4.1.
